# Where “and” joins values, the source holds several entries; their conditions need not be identical. Equal entries are not always repeated. Where two headings read alike, the source gives them in different places.
# Legend:
# zebrafish embryos = experiment: acute toxicity test from 48–120 hpf based on the OECD FET test; assay type: in vivo, zebrafish (Danio rerio); settings: zebrafish embryos exposed 48–120 hpf; for LC50, class symbol: highest concentration set by water solubility
# Text: (§1) Twenty embryos per treatment were exposed to 5 concentrations of compound of interest in a 10× dilution factor from 48–120 hpf, which is the experimental time in which EDCs will be screened posteriorly. Embryos were exposed from 48–120 hpf rather than 0–96 hpf or 0–120 hpf to avoid unspecific toxicity outside of the EDC testing period, which have been chosen on the basis that endocrine pathways, e.g., thyroid metabolism, are not fully functional until 40–55 hpf in zebrafish embryos. Stock solutions of chemicals to be tested were freshly prepared in exposure medium. The highest concentration for each compound was selected according to its water solubility (Table S1). Exposures were performed in glass vessels to assure maximum bioavailability for hydrophobic compounds, and medium was not exchanged during the experiment.
# cyp19a1b - vtg1 mRNA = experiment: estrogenic markers considered together (cyp19a1b - vtg1 mRNA), zebrafish embryos
# [1] = tested on: brain aromatase (cyp19a1b); experiment: cyp19a1b gene expression (qPCR) in exposed zebrafish embryos; assay type: in vivo, zebrafish (Danio rerio); settings: for EC50: zebrafish embryos exposed 48–120 hpf, mRNA by qPCR; for LogEC50 (cyp19a1b mRNA): log of EC50 in μM, 48-120 h, our study
# vitellogenin 1 (vtg1) = experiment: vtg1 gene expression (qPCR) in exposed zebrafish embryos; settings: for EC50: read-out: EC50 vtg1
# cyp19a1b - mRNA [2] = settings: cited from earlier work; for LogEC50 (cyp19a1b - mRNA): log of EC50 in μM
# ERE-GFP - fluorescence = settings: 0-120 h, cited from earlier work
# [3] = acute toxicity test from 48–120 hpf based on the OECD FET test; assay type: in vivo, zebrafish (Danio rerio); settings: in vivo; zebrafish embryos exposed 48–120 hpf
# Text: as §1
# vtg - blood [4] = settings: cited from earlier work; for LogEC50 (vtg - blood): log of EC50 in μM
# vtg1 - mRNA = settings: 0-168 h; ref [10] (supplement list: Chen 2018); cited from earlier work
# vtg - mRNA = settings: 14 days (juveniles), cited from earlier work
# vtg - blood [5] = settings: cited from earlier work
# cyp19a1b - fluorescence = settings: 0-96 h, cited from earlier work; for LogEC50 (cyp19a1b - fluorescence): log of EC50 in μM
# cyp19a1b - mRNA [6] = settings: 14 days (adults), cited from earlier work
# [7] = tested on: cytosolic sulfotransferase 2 family 2 (sult2st3); experiment: sult2st3 gene expression (qPCR) in exposed zebrafish embryos; assay type: in vivo, zebrafish (Danio rerio); settings: for EC50: read-out: EC50 sult2st3; for maximum FI / maximum average overexpression level above controls, sult2st3: exposed 48–120 hpf, times above controls
# sult2st3 - cyp2k22 mRNA [8] = settings: 96-120 h, ref [31] (supplement list), cited from earlier work
# thyroid peroxidase (tpo) = experiment: tpo gene expression (qPCR) in exposed zebrafish embryos; assay type: in vivo, zebrafish (Danio rerio); settings: Danio rerio, read-out: EC50 tpo
# [9] = tested on: cytochrome P450 2k22 (cyp2k22); experiment: cyp2k22 gene expression (qPCR) in exposed zebrafish embryos; settings: for EC50: read-out: EC50 cyp2k22
# sult2st3 - cyp2k22 mRNA [10] = experiment: androgenic markers considered together (sult2st3 - cyp2k22 mRNA), zebrafish embryos
# [11] = listed physicochemical property, source not given; cited from earlier work
# [12] = tested on: iodothyronine deiodinase 2 (dio2); experiment: dio2 gene expression (qPCR) in exposed zebrafish embryos; assay type: in vivo, zebrafish (Danio rerio); settings: read-out: EC50 dio2
# [13] = FUL 1 µM co-exposed with E2 1 µM
# [14] = * mean of an approximate range, ref [21] (supplement list: Molina 2018)
# [15] = log of EC50 in μM, ref [21] (supplement list)
# [16] = ref [3] (supplement list: Brion 2012)
# [17] = log of EC50 in μM, 48-120 h, our study
# [18] = NIL 1 µM co-exposed with TES 1 µM, reaching control levels
# [19] = zebrafish embryos exposed 48–120 hpf, mRNA by qPCR
structure (smiles),measurement,setting,value
"C[C@]12CC[C@@H]3c4ccc(O)cc4C[C@@H](CCCCCCCCC[S+]([O-])CCCC(F)(F)C(F)(F)F)[C@H]3[C@@H]1CC[C@@H]2O (some centres unmarked) [FUL, fulvestrant]","LC50, class symbol",zebrafish embryos,-
same,rescue effects at 10 µM antagonist,cyp19a1b - vtg1 mRNA; FUL 10 µM co-exposed with E2,no more rescue effects than those observed at 1 µM
same,FI cyp19a1b after co-exposure with antagonist,[1]; [13],57.17
same,FI vtg1 after co-exposure with antagonist,vitellogenin 1 (vtg1); [13],205.50
same,rescue effect: decrease of vtg1 compared to single exposure of E2,vitellogenin 1 (vtg1); [13],47.89%
"CC(C)(c1ccc(O)cc1)c1ccc(O)cc1 [BPA, bisphenol A]",EC50,"cyp19a1b - mRNA [2]; 0-72 h, ref [20] (supplement list: Saeed 2016)",220 nM
same,EC50,"cyp19a1b - mRNA [2]; 72-96 h, * mean of an approximate range, ref [5] (supplement list: Chung 2011)",~3000 nM
same,LogEC50 (cyp19a1b - mRNA),"cyp19a1b - mRNA [2]; 0-72 h, ref [20] (supplement list)",-0.6576
same,LogEC50 (cyp19a1b - mRNA),"cyp19a1b - mRNA [2]; 72-96 h, ref [5] (supplement list)",0.4771
same,EC50,ERE-GFP - fluorescence; ref [19] (supplement list: Green 2016),1230 nM
same,LogEC50 (ERE-GFP - fluorescence),"ERE-GFP - fluorescence; log of EC50 in μM, ref [19] (supplement list)",0.08991
same,LC50,[3],41600 nM
same,EC50,"vtg - blood [4]; 14 days (adults), ref [14] (supplement list: Brian 2005)",650 nM
same,EC50,"vtg - blood [4]; 28 days (juveniles), * mean of an approximate range, ref [13] (supplement list: Van den Belt 2004)",~2630 nM
same,LogEC50 (vtg - blood),"vtg - blood [4]; 14 days (adults), ref [14] (supplement list)",-0.1871
same,LogEC50 (vtg - blood),vtg - blood [4]; ref [13] (supplement list),0.42
same,"EC50 (vtg1 - mRNA), class symbol",vtg1 - mRNA,n.e.
same,EC50,[1]; Danio rerio,4990 nM
same,LogEC50 (cyp19a1b mRNA),[1],0.6981
same,EC50,vtg - mRNA; [14],~240 nM
same,LogEC50 (vtg - mRNA),vtg - mRNA; [15],-0.6198
same,EC50,"vtg - blood [5]; 43 days (adults), * mean of an approximate range, ref [22] (supplement list: Sohoni 2001), read-out: EC50 (vtg - blood)",~1750 nM
same,LogEC50 (vtg - blood),"vtg - blood [5]; log of EC50 in μM, 43 days (adults), ref [22] (supplement list)",0.243
same,EC50,"cyp19a1b - fluorescence; * mean of an approximate range, ref [18] (supplement list: Le Fol 2017)",~6250 nM
same,EC50,cyp19a1b - fluorescence; ref [2] (supplement list: Petersen 2013),7400 nM
same,EC50,cyp19a1b - fluorescence; [16],3300 nM
same,LogEC50 (cyp19a1b - fluorescence),cyp19a1b - fluorescence; ref [2] (supplement list),0.8692
same,LogEC50 (cyp19a1b - fluorescence),cyp19a1b - fluorescence; ref [3] (supplement list),0.5185
same,LogEC50 (cyp19a1b - fluorescence),cyp19a1b - fluorescence; ref [18] (supplement list),0.7959
same,EC50,cyp19a1b - mRNA [6]; [14],~24 nM
same,LogEC50 (cyp19a1b - mRNA),cyp19a1b - mRNA [6]; [15],-1.62
same,"EC50 (vtg1 - mRNA), class symbol","vitellogenin 1 (vtg1); 48-120 h, our study",n.e.
same,effect on expression of vtg1,vitellogenin 1 (vtg1); exposed 48–120 hpf,did not affect
"C[C@]12CC[C@H]3[C@@H](CCC4=CC(=O)CC[C@@]43C)[C@@H]1CC[C@@H]2O [TES, testosterone]",EC50,"cyp19a1b - mRNA [2]; 0-72 h, * mean of an approximate range, ref [27] (supplement list: Mouriec 2009)",~1000 nM
same,LogEC50 (cyp19a1b - mRNA),"cyp19a1b - mRNA [2]; 0-72 h, ref [27] (supplement list)",0
same,EC50,[7]; Danio rerio,140 nM
same,"maximum FI / maximum average overexpression level above controls, sult2st3",[7],7.33 and 4.64–8.97
same,LogEC50 (sult2st3 - cyp2k22 mRNA),sult2st3 - cyp2k22 mRNA [8]; log of EC50 in μM,-1.222
same,EC50,sult2st3 - cyp2k22 mRNA [8]; read-out: EC50 (sult2st3 - cyp2k22 mRNA),60 nM
same,EC50,thyroid peroxidase (tpo),20 nM
same,EC50,[9]; Danio rerio,740 nM
same,"maximum average overexpression level above controls, cyp2k22","[9]; exposed 48–120 hpf, times above controls",4.01
same,EC50,"cyp19a1b - vtg1 mRNA; Danio rerio, read-out: EC50 (cyp19a1b - vtg1 mRNA)",1110 nM
same,LogEC50 (cyp19a1b - vtg1 mRNA),cyp19a1b - vtg1 mRNA; [17],0.04532
same,EC50,"sult2st3 - cyp2k22 mRNA [10]; Danio rerio, read-out: EC50 (sult2st3 - cyp2k22 mRNA)",440 nM
same,LogEC50 (sult2st3 - cyp2k22 mRNA),sult2st3 - cyp2k22 mRNA [10]; [17],-0.3565
same,EC50,cyp19a1b - fluorescence; [16],1030 nM
same,LogEC50 (cyp19a1b - fluorescence),cyp19a1b - fluorescence; ref [3] (supplement list),0.01284
same,EC50,vitellogenin 1 (vtg1); Danio rerio,1460 nM
"CC1(C)NC(=O)N(c2ccc([N+](=O)[O-])c(C(F)(F)F)c2)C1=O [NIL, nilutamide]",rescue of TES-induced sult2st3 overexpression,[7]; [18],totally rescued
same,LC50,[3],32800 nM
same,Water solubility,[11],4.19 µg/mL
same,rescue of TES-induced cyp2k22 overexpression,[9]; [18],totally rescued
"C[C@]12CC[C@H]3[C@@H](CCC4=CC(=O)CC[C@@H]43)[C@@H]1CC[C@@H]2O [NAN, nandrolone]",EC50,[7]; Danio rerio,130 nM
same,"maximum FI / maximum average overexpression level above controls, sult2st3",[7],4.64–8.97
same,LC50,[3],497000 nM
same,EC50,[12]; Danio rerio,80 nM
same,EC50,[9]; Danio rerio,110 nM
same,EC50,[1]; Danio rerio,200 nM
same,EC50,vitellogenin 1 (vtg1); Danio rerio,1720 nM
"C=CC1(C)OC(=O)N(c2cc(Cl)cc(Cl)c2)C1=O (centres unmarked) [VIN, vinclozolin]","LC50, class symbol",zebrafish embryos,-
"CC/C(=C(/CC)c1ccc(O)cc1)c1ccc(O)cc1 [DES, diethylstilbestrol]",EC50,"cyp19a1b - mRNA [2]; 2-48 h, * mean of an approximate range, ref [6] (supplement list: Kishida 2001)",~5.5 nM
same,LogEC50 (cyp19a1b - mRNA),"cyp19a1b - mRNA [2]; 2-48 h, ref [6] (supplement list)",-2.26
same,"LC50, class symbol",zebrafish embryos,-
same,EC50,[1]; Danio rerio,10 nM
same,LogEC50 (cyp19a1b mRNA),[1],-2
same,EC50,cyp19a1b - fluorescence; [16],0.01 nM
same,LogEC50 (cyp19a1b - fluorescence),cyp19a1b - fluorescence; ref [3] (supplement list),-5
"C[C@]12CCC(=O)C=C1CC[C@@H]1[C@@H]2CC[C@@]2(C)[C@H]1CC[C@]2(C)O [17α-MT, 17α-methyltestosterone]",EC50,"cyp19a1b - mRNA [2]; 0-144h, * mean of an approximate range, ref [28] (supplement list: Trant 2001)",~170 nM
same,LogEC50 (cyp19a1b - mRNA),"cyp19a1b - mRNA [2]; 0-144h, ref [28] (supplement list)",-0.7696
same,"maximum FI / maximum average overexpression level above controls, sult2st3",[7],4.64–8.97
same,EC50,[7]; [19],100 nM
same,LC50,zebrafish embryos,90200 nM
same,Water solubility,[11],33.90 µg/mL
same,EC50,[12]; [19],90 nM
same,EC50,[9]; [19],50 nM
same,LogEC50 (cyp19a1b mRNA),[1],-0.2076
same,EC50,[1],620 nM
same,EC50,"vtg - blood [5]; 12 days (adults), ref [30] (supplement list: Ankley 2001), read-out: EC50 (vtg - blood)",660 nM
same,EC50,"vtg - blood [5]; 21 days (adults), * mean of an approximate range, ref [29] (supplement list: Pawlowski 2004), read-out: EC50 (vtg1 - blood)",~2 nM
same,LogEC50 (vtg - blood),"vtg - blood [5]; log of EC50 in μM, 12 days (adults), ref [30] (supplement list)",-0.1805
same,LogEC50 (vtg1 - blood),"vtg - blood [5]; log of EC50 in μM, 21 days (adults), ref [29] (supplement list)",-2.699
same,EC50,cyp19a1b - fluorescence; [16],40 nM
same,LogEC50 (cyp19a1b - fluorescence),cyp19a1b - fluorescence; ref [3] (supplement list),-1.398
same,LogEC50 (vtg1 mRNA),vitellogenin 1 (vtg1); [17],0.301
same,EC50,"vitellogenin 1 (vtg1); zebrafish embryos exposed 48–120 hpf, mRNA by qPCR (END: downregulation)",2000 nM
